Source: ChEMBL document CHEMBL4385640, “Synthesis, SAR study, and biological evaluation of novel 2,3-dihydro-1H-imidazo[1,2-a]benzimidazole derivatives as phosphodiesterase 10A inhibitors” (Bioorg Med Chem, 2019)
Converted amounts (≈) assume the structure as drawn. The source made the active and inactive calls. The rule behind the calls is not given here.

Tests used:
[1] = biological target: cAMP and cAMP-inhibited cGMP 3',5'-cyclic phosphodiesterase 10A (Homo sapiens, UniProt Q9Y233); test: Inhibition of human PDE10A using cAMP as substrate preincubated for 30 mins followed by substrate addition and measured after 60 mins by HTRF detection assay
LLC-PK1 = test: Ratio of efflux ratio of LLC-PK1 cells expressing human MDR1 at 1 uM to efflux ratio of wild type LLC-PK1 cells at 1 uM; type: ADME, cell-based, Sus scrofa; details: pig, llc-pk1, 1 µM
[2] = Apparent permeability in wild type pig LLC-PK1 cells at 1 uM incubated for 3 hrs by […] LC-MS/MS analysis; type: ADME, cell-based, Sus scrofa
[3] = Drug uptake in mouse brain at 0.1 mg/kg, po measured after 1 hr by LC-MS/MS analysis; type: ADME, organism-based
[4] = Drug uptake in mouse plasma at 0.1 mg/kg, po measured after 1 hr by LC-MS/MS analysis; type: ADME, organism-based
[5] = Lipophilicity, logD of the compound at pH 7.4; type: physicochemical; details: buffer
[6] = Toxicity in ICR mouse assessed as induction of catalepsy up to 100 mg/kg, po treated for 60 mins and measured up to 120 secs by bar test; type: organism-based; details: in vivo
CYP1A2 = biological target: T1, CYP1A2 (Homo sapiens, UniProt P05177); test: Inhibition of CYP1A2 in human liver microsomes assessed as enzyme residual activity incubated for 30 mins by LC-MS/MS analysis relative to control; type: ADME; details: read-out: Activity
T1 sequence (P05177 whole entry): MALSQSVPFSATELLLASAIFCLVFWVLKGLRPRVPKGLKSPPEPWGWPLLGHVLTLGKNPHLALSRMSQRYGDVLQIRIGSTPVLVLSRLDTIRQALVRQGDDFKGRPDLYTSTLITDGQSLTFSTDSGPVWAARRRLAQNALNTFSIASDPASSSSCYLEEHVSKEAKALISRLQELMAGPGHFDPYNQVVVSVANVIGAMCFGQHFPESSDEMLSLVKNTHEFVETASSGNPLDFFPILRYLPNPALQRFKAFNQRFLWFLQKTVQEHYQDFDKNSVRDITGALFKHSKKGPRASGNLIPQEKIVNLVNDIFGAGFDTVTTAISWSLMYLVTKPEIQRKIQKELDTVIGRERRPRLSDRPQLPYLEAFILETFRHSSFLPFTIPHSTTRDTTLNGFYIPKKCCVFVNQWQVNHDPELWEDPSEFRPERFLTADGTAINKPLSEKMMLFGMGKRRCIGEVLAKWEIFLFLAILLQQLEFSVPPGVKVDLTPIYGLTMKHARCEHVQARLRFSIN

Mus musculus [7] = test: Effect on mean number of arm entries in ddY mouse at 0.03 to 0.3 mg/kg, po pretreated 40 mins before MK-801 dosing and measured after 20 mins by Y-maze test; type: organism-based; details: in vivo
Mus musculus [8] = test: Cognition enhancement activity in ddY mouse assessed as suppression of MK-801-induced working memory deficit by measuring decrease in spontaneous alternation behavior at 0.1 to 0.3 mg/kg, po pretreated 40 mins before MK-801 dosing and measured after 20 mins by Y-maze test; type: functional, organism-based
Mus musculus [9] = test: Effect on mean number of arm entries in ddY mouse at 1 mg/kg, po pretreated 40 mins before MK-801 dosing and measured after 20 mins by Y-maze test; type: organism-based; details: in vivo
[10] = Intrinsic clearance in human liver microsomes by LC-MS/MS analysis; type: ADME, Microsome
Mus musculus [11] = test: Antipsychotic activity in ICR mouse assessed as inhibition of Phencyclidine-induced hyperlocomotion pretreated orally followed by Phencyclidine injection and measured after 60 mins; type: functional, organism-based
[12] = Solubility of the compound in pH 6.8 JP2 buffer; type: physicochemical
CYP2C19 = CYP2C19 (Homo sapiens, UniProt P33261); test: Inhibition of CYP2C19 in human liver microsomes assessed as enzyme residual activity incubated for 30 mins by LC-MS/MS analysis relative to control; type: ADME; details: read-out: Activity
[13] = Intrinsic clearance in mouse liver microsomes by LC-MS/MS analysis; type: ADME, Microsome; details: read-out: CLH
CYP3A4 = CYP3A4 (Homo sapiens, UniProt P08684); test: Inhibition of CYP3A4 in human liver microsomes assessed as enzyme residual activity incubated for 30 mins by LC-MS/MS analysis relative to control; type: ADME; details: read-out: Activity
CYP2C8 = biological target: T2, CYP2C8 (Homo sapiens, UniProt P10632); test: Inhibition of CYP2C8 in human liver microsomes assessed as enzyme residual activity incubated for 30 mins by LC-MS/MS analysis relative to control; type: ADME; details: read-out: Activity
T2 sequence (P10632 whole entry): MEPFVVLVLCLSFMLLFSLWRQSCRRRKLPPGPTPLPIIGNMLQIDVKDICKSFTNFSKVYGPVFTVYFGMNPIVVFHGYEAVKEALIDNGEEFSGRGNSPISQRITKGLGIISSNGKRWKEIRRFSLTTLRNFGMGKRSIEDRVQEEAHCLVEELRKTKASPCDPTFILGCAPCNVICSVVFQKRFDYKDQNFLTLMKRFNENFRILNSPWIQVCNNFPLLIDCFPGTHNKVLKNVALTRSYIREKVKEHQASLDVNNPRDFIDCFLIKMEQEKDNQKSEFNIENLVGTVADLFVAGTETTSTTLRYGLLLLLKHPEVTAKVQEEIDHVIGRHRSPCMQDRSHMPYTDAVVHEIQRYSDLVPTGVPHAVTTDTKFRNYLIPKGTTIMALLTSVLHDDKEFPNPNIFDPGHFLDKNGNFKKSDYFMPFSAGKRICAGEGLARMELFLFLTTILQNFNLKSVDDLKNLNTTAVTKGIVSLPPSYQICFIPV

CYP2D6 = CYP2D6 (Homo sapiens, UniProt P10635); test: Inhibition of CYP2D6 in human liver microsomes assessed as enzyme residual activity incubated for 30 mins by LC-MS/MS analysis relative to control; type: ADME; details: read-out: Activity
[14] = Total brain to plasma partition coefficient, Kp in mouse at 0.1 mg/kg, po measured after 1 hr by LC-MS/MS analysis; type: ADME, organism-based
CYP2C9 = CYP2C9 (Homo sapiens, UniProt P11712); test: Inhibition of CYP2C9 in human liver microsomes assessed as enzyme residual activity incubated for 30 mins by LC-MS/MS analysis relative to control; type: ADME; details: read-out: Activity
CYP2C9, sequence (P11712 whole entry): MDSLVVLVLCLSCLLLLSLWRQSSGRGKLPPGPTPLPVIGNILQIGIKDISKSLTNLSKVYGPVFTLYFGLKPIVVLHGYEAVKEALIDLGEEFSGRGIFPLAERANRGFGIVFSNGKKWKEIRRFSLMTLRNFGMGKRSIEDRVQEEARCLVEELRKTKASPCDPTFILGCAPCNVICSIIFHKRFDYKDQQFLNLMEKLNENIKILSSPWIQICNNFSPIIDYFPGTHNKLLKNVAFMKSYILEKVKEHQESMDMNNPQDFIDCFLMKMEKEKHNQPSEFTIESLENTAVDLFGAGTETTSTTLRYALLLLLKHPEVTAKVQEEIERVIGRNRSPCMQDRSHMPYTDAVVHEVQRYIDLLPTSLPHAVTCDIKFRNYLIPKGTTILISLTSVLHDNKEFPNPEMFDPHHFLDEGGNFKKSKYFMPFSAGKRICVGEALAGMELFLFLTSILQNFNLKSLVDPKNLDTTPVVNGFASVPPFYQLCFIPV

cAMP and cAMP-inhibited cGMP 3',5'-cyclic phosphodiesterase 10A, sequence (Q9Y233 whole entry): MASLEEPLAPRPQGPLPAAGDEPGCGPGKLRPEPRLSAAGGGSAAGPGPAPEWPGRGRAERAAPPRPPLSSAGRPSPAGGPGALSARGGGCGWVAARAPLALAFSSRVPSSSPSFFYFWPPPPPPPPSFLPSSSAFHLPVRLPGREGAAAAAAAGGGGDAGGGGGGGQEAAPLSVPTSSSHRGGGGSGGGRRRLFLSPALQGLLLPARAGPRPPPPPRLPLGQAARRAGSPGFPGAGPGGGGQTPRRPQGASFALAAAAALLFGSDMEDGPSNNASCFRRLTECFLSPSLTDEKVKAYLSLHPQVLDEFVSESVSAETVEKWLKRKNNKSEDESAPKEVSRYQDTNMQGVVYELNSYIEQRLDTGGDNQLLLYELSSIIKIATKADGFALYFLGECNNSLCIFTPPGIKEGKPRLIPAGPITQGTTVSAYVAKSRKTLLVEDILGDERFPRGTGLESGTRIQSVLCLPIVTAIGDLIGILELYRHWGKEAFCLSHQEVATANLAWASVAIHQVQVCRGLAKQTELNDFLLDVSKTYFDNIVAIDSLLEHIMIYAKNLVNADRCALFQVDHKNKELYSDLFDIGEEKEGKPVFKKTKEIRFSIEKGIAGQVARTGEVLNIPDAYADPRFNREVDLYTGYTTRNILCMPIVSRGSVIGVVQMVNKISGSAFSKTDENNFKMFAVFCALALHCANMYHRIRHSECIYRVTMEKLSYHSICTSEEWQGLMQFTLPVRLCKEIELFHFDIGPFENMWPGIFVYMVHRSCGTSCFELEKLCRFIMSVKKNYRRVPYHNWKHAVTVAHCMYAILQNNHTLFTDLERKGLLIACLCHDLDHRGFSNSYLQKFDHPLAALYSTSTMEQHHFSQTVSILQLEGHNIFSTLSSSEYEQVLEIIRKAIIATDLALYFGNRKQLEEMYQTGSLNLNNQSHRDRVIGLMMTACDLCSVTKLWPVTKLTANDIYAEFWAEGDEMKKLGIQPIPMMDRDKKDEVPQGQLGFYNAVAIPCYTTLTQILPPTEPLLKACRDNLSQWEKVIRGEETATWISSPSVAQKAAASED
CYP2D6, sequence (P10635 whole entry): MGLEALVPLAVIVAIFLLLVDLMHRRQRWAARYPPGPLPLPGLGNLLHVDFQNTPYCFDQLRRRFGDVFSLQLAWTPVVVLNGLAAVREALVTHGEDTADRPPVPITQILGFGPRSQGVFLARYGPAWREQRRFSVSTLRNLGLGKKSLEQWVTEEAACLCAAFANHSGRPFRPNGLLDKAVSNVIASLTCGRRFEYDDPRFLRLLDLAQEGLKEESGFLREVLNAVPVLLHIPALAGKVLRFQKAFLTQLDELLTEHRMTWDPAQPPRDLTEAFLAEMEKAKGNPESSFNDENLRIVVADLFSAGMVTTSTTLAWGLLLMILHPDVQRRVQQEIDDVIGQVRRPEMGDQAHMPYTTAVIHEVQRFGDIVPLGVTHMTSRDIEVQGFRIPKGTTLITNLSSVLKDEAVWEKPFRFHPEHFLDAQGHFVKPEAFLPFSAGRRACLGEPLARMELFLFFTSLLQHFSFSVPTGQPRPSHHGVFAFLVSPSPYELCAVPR
CYP3A4, sequence (P08684 whole entry): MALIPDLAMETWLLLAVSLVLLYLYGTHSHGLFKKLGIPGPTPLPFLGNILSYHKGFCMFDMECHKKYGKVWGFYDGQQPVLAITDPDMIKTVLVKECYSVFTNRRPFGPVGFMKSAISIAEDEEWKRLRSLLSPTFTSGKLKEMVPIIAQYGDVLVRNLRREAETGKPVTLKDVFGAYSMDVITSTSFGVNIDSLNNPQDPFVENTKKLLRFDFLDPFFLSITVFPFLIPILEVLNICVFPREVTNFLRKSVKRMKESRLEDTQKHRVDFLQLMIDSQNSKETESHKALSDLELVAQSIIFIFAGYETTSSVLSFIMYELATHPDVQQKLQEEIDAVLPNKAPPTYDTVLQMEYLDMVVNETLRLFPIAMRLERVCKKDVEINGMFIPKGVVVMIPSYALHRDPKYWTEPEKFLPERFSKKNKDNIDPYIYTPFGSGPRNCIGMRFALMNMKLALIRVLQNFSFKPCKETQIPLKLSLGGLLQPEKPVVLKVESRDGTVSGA
CYP2C19, sequence (P33261 whole entry): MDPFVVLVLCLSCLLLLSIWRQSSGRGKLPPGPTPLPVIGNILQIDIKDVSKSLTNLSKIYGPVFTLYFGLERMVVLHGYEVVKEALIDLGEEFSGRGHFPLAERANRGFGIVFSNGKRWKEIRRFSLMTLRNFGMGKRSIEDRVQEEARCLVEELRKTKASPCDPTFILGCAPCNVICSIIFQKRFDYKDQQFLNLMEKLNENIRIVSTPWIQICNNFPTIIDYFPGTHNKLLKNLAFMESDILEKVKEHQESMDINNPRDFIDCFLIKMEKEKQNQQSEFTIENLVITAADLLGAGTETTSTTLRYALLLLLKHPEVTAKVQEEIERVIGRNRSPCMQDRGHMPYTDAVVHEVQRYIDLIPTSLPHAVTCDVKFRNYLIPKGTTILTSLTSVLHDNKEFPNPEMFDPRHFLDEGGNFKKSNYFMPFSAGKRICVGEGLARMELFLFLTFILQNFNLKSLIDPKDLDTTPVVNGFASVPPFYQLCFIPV

| SMILES | IC50 [1] [nM] | Ratio (LLC-PK1) | further results |
| --- | --- | --- | --- |
| Cc1cc(C)n2nc(CC(=O)N3CCn4c3nc3c(C)cccc34)nc2n1 | > 10000 |  |  |
| Cc1cc(C)n2nc(CC(=O)N3CC(C)n4c3nc3ccccc34)nc2n1 (stereo unspecified) | 292 |  |  |
| Cc1cc(C)n2nc(CCN3CCn4c3nc3ccccc34)nc2n1 | 138 | 3.6 | Papp at 3 h, 1 µM [2]: 19.2 ×10⁻⁶ cm/s |
| Cc1cc(C)n2nc(CCNc3nc4ccccc4n3C)nc2n1 | 88 |  |  |
| Cc1cc(C)n2cc(CC(=O)N3CCn4c3nc3ccccc34)nc2n1 | 275 | 1 |  |
| Cc1cc(C)n2nc(CCc3ccn4nc5ccccc5c4n3)nc2n1 | 78 |  |  |
| Cc1cc(C)n2nc(CC(=O)N3c4nc5ccccc5n4C[C@@H]3c3ccccc3)nc2n1 | 75 | 3.8 |  |
| Cc1cc(C)n2nc(CCNc3ccc4ccccc4n3)nc2n1 | 294 |  |  |
| Cc1cc(C)n2nc(CCNc3nc4ccccc4[nH]3)nc2n1 | 105 |  |  |
| Cc1cc(C)n2nc(CC(=O)N3CCn4c3nc3cccc(C)c34)nc2n1 | 279 |  |  |
| Cc1ccc2c(c1)nc1n2CCN1C(=O)Cc1nc2nc(C)cc(C)n2n1 | 441 |  |  |
| Cc1cc(C)n2nc(CCNc3ncc4ccccc4n3)nc2n1 | 2080 |  |  |
| Cc1cc(C)n2nc(CC(=O)N3c4nc5ccccc5n4C[C@H]3c3ccccc3)nc2n1 | 1920 |  |  |
| Cc1cc(C)n2nc(CC(=O)N3CCn4c3nc3ccccc34)nc2c1 | 135 | 1.2 |  |
| Cc1cc(C)n2nc(CCNc3cnc4ccccc4n3)nc2n1 | 1220 |  |  |
| Cc1cc(C)n2nc(CC(=O)N3CCCn4c3nc3ccccc34)nc2n1 | 1480 |  |  |
| Cc1ccc2nc3n(c2c1)CCN3C(=O)Cc1nc2nc(C)cc(C)n2n1 | 416 |  |  |

Now from value to molecule, other results behind:

| IC50 [1] [nM] | Ratio (LLC-PK1) | SMILES | further results |
| --- | --- | --- | --- |
| 44 | 1.3 | Cc1ncc(C)n2nc(CC(=O)N3CCn4c3nc3ccccc34)nc12 |  |
| 2 | 1.8 | Cc1cc(C)n2nc(CCc3cc(O)n4nc5ccccc5c4n3)nc2n1 | Drug uptake ([3]; in vivo, 1 h): Not Active; concentration at 1 h [4]: 0.59 ng/mL; Papp at 3 h, 1 µM [2]: 3.2 ×10⁻⁶ cm/s; logD [5]: 0.3 |
| 52 | 2.3 | Cc1cc(C)n2nc(CC(=O)N3CCn4c3nc3ccccc34)nc2n1 | Papp at 3 h, 1 µM [2]: 16.8 ×10⁻⁶ cm/s |
| 28 | 2.4 | Cc1cc(C)n2nc(CC(=O)N3c4nc5ccccc5n4C[C@@H]3C)nc2n1 |  |
| 74 | 2.1 | Cc1cc(C)n2nc(CC(=O)N3c4nc5ccccc5n4CC3(C)C)nc2n1 |  |
| 8.4 | 1.2 | Cc1ncc(C)n2nc(CC(=O)N3c4nc5ccccc5n4C[C@@H]3C)nc12 | Activity [6]: Non-Toxic; concentration at 1 h ([3]; brain, read-out: Drug uptake): 2.2 ng/g; activity at 0.5 h (CYP1A2): 98%; Activity (Mus musculus [7]): Non-Toxic; concentration at 1 h [4]: 0.91 ng/mL; Papp at 3 h, 1 µM [2]: 27.5 ×10⁻⁶ cm/s; Activity (Mus musculus [8]): Active; Activity (Mus musculus [9]): Toxic; CLH [10]: Stable; Activity (Mus musculus [11]): Dose-dependent effect; solubility [12]: 100 µM (≈ 36.1 µg/mL); activity at 0.5 h (CYP2C19): 90%; CLint scaled [13]: 175 mL/min/kg; activity at 0.5 h (CYP3A4): 90%; activity at 0.5 h (CYP2C8): 99%; activity at 0.5 h (CYP2D6): 102%; Kp at 1 h [14]: 2.3; logD [5]: 2; activity at 0.5 h (CYP2C9): 96% |
| 69 | 2.4 | Cc1cc(C)n2nc(CC(=O)N3c4nc5ccccc5n4CC3C)nc2n1 (racemic) |  |
| 2.9 |  | Cc1cc(C)n2nc(CCc3cc(O)n4nc5ncccc5c4n3)nc2n1 |  |
